{"source": "patent US20190367449A1", "about": "“PHENYLCREATINE, ITS USE AND METHOD FOR ITS PRODUCTION” (priority 2017, published 2019)", "origin": "cited, not measured here", "settings": "in vivo; cited from earlier work"}
{"smiles": "CN(CC(=O)O)C(=N)N.Cl", "note": "[creatine hydrochloride]", "values": [{"measurement": "Relative bioavailability, higher than of creatine monohydrate", "value": "about 50%"}]}
